Measurements as given in article PMC9478340, “Inhibitors targeting the autophosphorylation of serine/threonine kinase of Streptococcus suis show potent antimicrobial activity” (Frontiers in Microbiology, 2022).

What follows are compounds tested against T1, serine/threonine kinase (ssSTK) (Streptococcus suis, UniProt A0A0H3MXV7) (assay: Kinase-Glo ATP consumption assay of autophosphorylation; confirmed by anti-P-Thr western blot).
T1 construct: gene SSUBM407_0373; 6 × his-tagged kinase domain of ssSTK (ssSTK^KD, pET28a-stk^KD) is the wild-type expression construct described; the assay text says 'purified ssSTK'
T1 sequence (A0A0H3MXV7 entry or part of it): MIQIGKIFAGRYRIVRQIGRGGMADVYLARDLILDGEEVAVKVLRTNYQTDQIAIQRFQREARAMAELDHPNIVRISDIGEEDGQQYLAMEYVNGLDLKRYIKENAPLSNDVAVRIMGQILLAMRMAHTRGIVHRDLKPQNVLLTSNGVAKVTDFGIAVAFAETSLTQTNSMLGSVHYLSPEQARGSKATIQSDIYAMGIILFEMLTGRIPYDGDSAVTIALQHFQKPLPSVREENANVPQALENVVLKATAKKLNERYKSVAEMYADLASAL
Format: biochemical
For c1cc(Nc2cc(C3CC3)[nH]n2)nc(Nc2ccc3[nH]cnc3c2)n1 [APY29], the IC50 was 10.1 µM.
Work on O=C(Nc1c[nH]nc1-c1nc2cc(CN3CCOCC3)ccc2[nH]1)NC1CC1 [AT9283] yielded an IC50 of 10.6 µM.
In the case of COC(=O)[C@@]1(O)C[C@H]2O[C@]1(C)n1c3ccccc3c3c4c(c5c6ccccc6n2c5c31)C(=O)NC4 [K252a], the IC50 is reported as 13.8 µM.
CN[C@@H]1C[C@H]2O[C@@](C)([C@@H]1OC)n1c3ccccc3c3c4c(c5c6ccccc6n2c5c31)C(=O)NC4 [Staurosporine] was tested, and the IC50 was 8.97 µM.
